Measured values taken from patent US20150174137A1, “COMPOSITIONS FOR TREATING MICROBIAL INFECTIONS” (ALCON RESEARCH, LTD., priority 2010, published 2015).
≈ marks a conversion by molar mass, not a printed value. Values belong to the compound of their own block, whether it stands above or below them.

Assays:
[1] = Solubility studies of finafloxacin monohydrochloride in aqueous solution with various salts; format: physicochemical
Excerpt: TABLE 1 below summarizes the results of solubility studies using finafloxacin monohydrochloride in aqueous solution with various salts at different concentrations. […] In particular, magnesium salts generated clear, colorless solutions at slightly acidic, physiologically-compatible pH ranges.

[2] = Solubility of finafloxacin in three magnesium chloride-containing solutions at various pH; format: physicochemical; conditions: for solubility: aqueous with cosolvent or surfactant or cyclodextrin
[3] = pH 7.4 in 0.1M phosphate buffer; cited from earlier work
[4] = Solubility studies of fluoroquinolones (0.3%) with ZnCl2, MgCl2 or CaCl2; conditions: quinolone 0.3%
[5] = 0.05% MgCl2 5.27 mM + 0.05% ZnCl2 3.67 mM
[6] = 0.05% MgCl2 5.27 mM + 0.1% ZnCl2 7.34 mM
[7] = 0.1% MgCl2 10.5 mM + 0.05% ZnCl2 3.67 mM
[8] = 0.1% MgCl2 10.5 mM + 0.1% ZnCl2 7.3 mM
[9] = AlCl3 13.5 mM, Conc. (%) 0.180%
[10] = CaGluconate 17.5 mM, Conc. (%) 0.75%
[11] = Mg(CH3COO)2 1.3 mM, Conc. (%) 0.019%
[12] = Mg(CH3COO)2 6.7 mM, Conc. (%) 0.095%
[13] = Mg(CH3COO)2 13.5 mM, Conc. (%) 0.19%
[14] = MgCl2 2.45 mM, Conc. (%) 0.023%
[15] = ZnCl2 13.5 mM, Conc. (%) 0.184%
[16] = TABLE 3A magnesium chloride-containing solution, final pH 5.73
[17] = TABLE 3A magnesium chloride-containing solution, final pH 6.23
[18] = TABLE 3A magnesium chloride-containing solution, final pH 6.58
[19] = TABLE 3A magnesium chloride-containing solution, final pH 7.12
[20] = TABLE 3A magnesium chloride-containing solution, final pH 7.55
[21] = TABLE 3B magnesium chloride-containing solution, pH 6.08
[22] = TABLE 3B magnesium chloride-containing solution, pH 6.15
[23] = TABLE 3B magnesium chloride-containing solution, pH 6.69
[24] = TABLE 3B magnesium chloride-containing solution, pH 7.29
[25] = TABLE 3B magnesium chloride-containing solution, pH 7.54
[26] = TABLE 3C magnesium chloride-containing solution, pH 5.22
[27] = TABLE 3C magnesium chloride-containing solution, pH 6.19
[28] = TABLE 3C magnesium chloride-containing solution, pH 6.65
[29] = TABLE 3C magnesium chloride-containing solution, pH 7.16
[30] = TABLE 3C magnesium chloride-containing solution, pH 7.67

C.C.S. (clear colorless solution) pH Range [1, 5]: 4.86-5.87
Observation [1, 5]: C.C.S
C.C.S. (clear colorless solution) pH Range [1, 6]: 4.62-5.86
Observation [1, 6]: C.C.S
C.C.S. (clear colorless solution) pH Range [1, 7]: 5.01-5.75
Observation [1, 7]: C.C.S
C.C.S. (clear colorless solution) pH Range [1, 8]: 4.68-5.88
Observation [1, 8]: C.C.S
C.C.S. (clear colorless solution) pH Range ([1]; AlCl3 1.3 mM, Conc. (%) 0.018%): Not Formed
Observation ([1]; AlCl3 1.3 mM, Conc. (%) 0.018%): Suspension at pH 3.7-7.4
C.C.S. (clear colorless solution) pH Range ([1]; AlCl3 6.7 mM, Conc. (%) 0.09%): 2.83-7.46
Observation ([1]; AlCl3 6.7 mM, Conc. (%) 0.09%): Pale-yellow→at pH 7.58
C.C.S. (clear colorless solution) pH Range [1, 9]: 2.50-7.24
Observation [1, 9]: Pale-yellow → at pH 7.41
C.C.S. (clear colorless solution) pH Range ([1]; CaCl2 1.3 mM, Conc. (%) 0.015%): Not Formed
Observation ([1]; CaCl2 1.3 mM, Conc. (%) 0.015%): Suspension at pH 3.7
C.C.S. (clear colorless solution) pH Range ([1]; CaCl2 6.7 mM, Conc. (%) 0.075%): Not Formed
Observation ([1]; CaCl2 6.7 mM, Conc. (%) 0.075%): Suspension at pH 3.7
C.C.S. (clear colorless solution) pH Range ([1]; CaCl2 13.5 mM, Conc. (%) 0.15%): 6.45
Observation ([1]; CaCl2 13.5 mM, Conc. (%) 0.15%): C.C.S
C.C.S. (clear colorless solution) pH Range ([1]; CaCl2 20.0 mM, Conc. (%) 0.22%): 6.29-6.39
Observation ([1]; CaCl2 20.0 mM, Conc. (%) 0.22%): C.C.S
C.C.S. (clear colorless solution) pH Range [1, 10]: Not Formed
Observation [1, 10]: Suspension at pH 3.7
C.C.S. (clear colorless solution) pH Range ([1]; CuCl2 1.3 mM, Conc. (%) 0.018%): Not Formed
Observation ([1]; CuCl2 1.3 mM, Conc. (%) 0.018%): Suspension at pH 3.7-7.4
C.C.S. (clear colorless solution) pH Range ([1]; CuCl2 6.7 mM, Conc. (%) 0.09%): 5.14-7.26
Observation ([1]; CuCl2 6.7 mM, Conc. (%) 0.09%): Light blue coloration
C.C.S. (clear colorless solution) pH Range ([1]; CuCl2 13.5 mM, Conc. (%) 0.18%): 5.77-6.11
Observation ([1]; CuCl2 13.5 mM, Conc. (%) 0.18%): Light blue coloration
C.C.S. (clear colorless solution) pH Range ([1]; KCl 93 mM, Conc. (%) 0.7%): Not Formed
Observation ([1]; KCl 93 mM, Conc. (%) 0.7%): Suspension at pH 3.7-7.4
C.C.S. (clear colorless solution) pH Range [1, 11]: Not Formed
Observation [1, 11]: Suspension at pH 3.7-7.4
C.C.S. (clear colorless solution) pH Range [1, 12]: 6.05-7.57
Observation [1, 12]: C.C.S.
C.C.S. (clear colorless solution) pH Range [1, 13]: 5.21-8.51
Observation [1, 13]: C.C.S.
C.C.S. (clear colorless solution) pH Range ([1]; MgCl2 1.3 mM, Conc. (%) 0.012%): Not Formed
Observation ([1]; MgCl2 1.3 mM, Conc. (%) 0.012%): Suspension at pH 3.7-7.4
C.C.S. (clear colorless solution) pH Range [1, 14]: Not Formed
Observation [1, 14]: Suspension at pH 3.7-7.4
C.C.S. (clear colorless solution) pH Range ([1]; MgCl2 4.91 mM, Conc. (%) […]): 6.68-7.65
Observation ([1]; MgCl2 4.91 mM, Conc. (%) […]): C.C.S
C.C.S. (clear colorless solution) pH Range ([1]; MgCl2 6.7 mM, Conc. (%) 0.064%): 6.00-9.84
Observation ([1]; MgCl2 6.7 mM, Conc. (%) 0.064%): C.C.S
C.C.S. (clear colorless solution) pH Range ([1]; MgCl2 13.5 mM, Conc. (%) 0.12%): 5.26-9.61
Observation ([1]; MgCl2 13.5 mM, Conc. (%) 0.12%): C.C.S
C.C.S. (clear colorless solution) pH Range ([1]; MgSO4 1.3 mM, Conc. (%) 0.016%): Not Formed
Observation ([1]; MgSO4 1.3 mM, Conc. (%) 0.016%): Suspension at pH 3.7-7.4
C.C.S. (clear colorless solution) pH Range ([1]; MgSO4 6.7 mM, Conc. (%) 0.08%): 6.36-9.23
Observation ([1]; MgSO4 6.7 mM, Conc. (%) 0.08%): C.C.S
C.C.S. (clear colorless solution) pH Range ([1]; MgSO4 13.5 mM, Conc. (%) 0.16%): 6.29-7.44
Observation ([1]; MgSO4 13.5 mM, Conc. (%) 0.16%): C.C.S
C.C.S. (clear colorless solution) pH Range ([1]; NaCl 13.5 mM, Conc. (%) 0.076%): Not Formed
Observation ([1]; NaCl 13.5 mM, Conc. (%) 0.076%): Suspension at pH 3.7-7.4
C.C.S. (clear colorless solution) pH Range ([1]; NaCl 27 mM, Conc. (%) 0.15%): Not Formed
Observation ([1]; NaCl 27 mM, Conc. (%) 0.15%): Suspension at pH 3.7-7.4
C.C.S. (clear colorless solution) pH Range ([1]; NaCl 120 mM, Conc. (%) 0.79%): Not Formed
Observation ([1]; NaCl 120 mM, Conc. (%) 0.79%): Suspension at pH 3.7-7.4
C.C.S. (clear colorless solution) pH Range ([1]; NaSO4 21.3 mM, Conc. (%) 0.3%): Not Formed
Observation ([1]; NaSO4 21.3 mM, Conc. (%) 0.3%): Suspension at pH 3.7-7.4
C.C.S. (clear colorless solution) pH Range ([1]; ZnCl2 1.3 mM, Conc. (%) 0.018%): Not Formed
Observation ([1]; ZnCl2 1.3 mM, Conc. (%) 0.018%): Suspension at pH 3.7-7.4
C.C.S. (clear colorless solution) pH Range ([1]; ZnCl2 6.7 mM, Conc. (%) 0.09%): 4.90-5.47
Observation ([1]; ZnCl2 6.7 mM, Conc. (%) 0.09%): C.C.S
C.C.S. (clear colorless solution) pH Range [1, 15]: 4.50-5.55
Observation [1, 15]: C.C.S
C.C.S. (clear colorless solution) pH Range ([1]; ZnCl2 20.0 mM, Conc. (%) 0.27%): 5.06-5.87
Observation ([1]; ZnCl2 20.0 mM, Conc. (%) 0.27%): C.C.S
C.C.S. (clear colorless solution) pH Range ([1]; ZnSO4 13.5 mM, Conc. (%) 0.22%): 5.65
Observation ([1]; ZnSO4 13.5 mM, Conc. (%) 0.22%): C.C.S
solubility [2, 16]: 3700 µg/mL (≈ 9.29 mM)
solubility [2, 17]: 6660 µg/mL (≈ 16.7 mM)
solubility [2, 18]: 5850 µg/mL (≈ 14.7 mM)
solubility [2, 19]: 8650 µg/mL (≈ 21.7 mM)
solubility [2, 20]: 11400 µg/mL (≈ 28.6 mM)
solubility [2, 21]: 2900 µg/mL (≈ 7.28 mM)
solubility [2, 22]: 3250 µg/mL (≈ 8.16 mM)
solubility [2, 23]: 5760 µg/mL (≈ 14.5 mM)
solubility [2, 24]: 8390 µg/mL (≈ 21.1 mM)
solubility [2, 25]: 10400 µg/mL (≈ 26.2 mM)
solubility [2, 26]: 1190 µg/mL (≈ 2.99 mM)
solubility [2, 27]: 1980 µg/mL (≈ 4.97 mM)
solubility [2, 28]: 3170 µg/mL (≈ 7.96 mM)
solubility [2, 29]: 4590 µg/mL (≈ 11.5 mM)
solubility [2, 30]: 8440 µg/mL (≈ 21.2 mM)
SMILES: N#Cc1c(N2C[C@@H]3NCCO[C@H]3C2)c(F)cc2c(=O)c(C(=O)O)cn(C3CC3)c12 [Finafloxacin, 8-cyano-1-cyclopropyl-6-fluoro-7-[(4aS,7aS)-hexahydropyrrolo[3,4-b]-1,4-oxazin-6(2H)-yl]-1,4-dihydro-4-oxo-3-quinoline carboxylic acid]

Solubility of finafloxacin [2, 16]: 0.404 w/v %
Solubility of finafloxacin [2, 17]: 0.727 w/v %
Solubility of finafloxacin [2, 18]: 0.638 w/v %
Solubility of finafloxacin [2, 19]: 0.944 w/v %
Solubility of finafloxacin [2, 20]: 1.244 w/v %
Solubility of finafloxacin [2, 21]: 0.316 w/v %
Solubility of finafloxacin [2, 22]: 0.355 w/v %
Solubility of finafloxacin [2, 23]: 0.628 w/v %
Solubility of finafloxacin [2, 24]: 0.915 w/v %
Solubility of finafloxacin [2, 25]: 1.140 w/v %
Solubility of finafloxacin [2, 26]: 0.130 w/v %
Solubility of finafloxacin [2, 27]: 0.216 w/v %
Solubility of finafloxacin [2, 28]: 0.346 w/v %
Solubility of finafloxacin [2, 29]: 0.501 w/v %
Solubility of finafloxacin [2, 30]: 0.921 w/v %
SMILES: Cl.N#Cc1c(N2C[C@@H]3NCCO[C@H]3C2)c(F)cc2c(=O)c(C(=O)O)cn(C3CC3)c12 [Finafloxacin HCl, finafloxacin monohydrochloride]

C.C.S. (clear colorless solution) pH Range ([4]; CaCl2 10.0 mM, Conc. (w/v %) 0.08%): 7.31-7.55
C.C.S. (clear colorless solution) pH Range ([4]; MgCl2 10.0 mM, Conc. (w/v %) 0.09%): 6.97-7.52
C.C.S. (clear colorless solution) pH Range ([4]; ZnCl2 10.0 mM, Conc. (w/v %) 0.13%): 6.61-7.31
SMILES: COc1c(N2CCNC(C)C2)c(F)cc2c(=O)c(C(=O)O)cn(C3CC3)c12 (stereo not shown) [GATIFLOXACIN, gatifloxacin]
literature-reported aqueous solubility [3]: 0.21 w/v %
